Peptide text beside a SMILES is read from it.
Assays:
[1] = Single-dose pharmacokinetics in SD rats; type: in vivo, SD rat
CYP1A2 = type: in vitro ADME; settings: cryopreserved human hepatocytes, three donors, 0.100 to 15.0 μM, 48 h, 37°C
beagle dog hepatocytes = assay: Hepatocyte stability; type: in vitro ADME; settings: 1.00 μM
[2] = In vitro blood to plasma partitioning; type: in vitro ADME, dog
mouse hepatocytes = assay: Metabolite identification in hepatocytes; type: in vitro ADME; settings: cryopreserved mouse hepatocytes, FC-12738 10 μM, 37 °C, 240 min, LC-UV-MS
CYP2D6 = CYP2D6 (Homo sapiens, UniProt P10635); assay: CYP time-dependent inhibition assay; type: in vitro ADME
[3] = In vitro blood to plasma partitioning; type: in vitro ADME, rat; settings: for Mean erythrocyte to plasma ratio KE/P: rat whole blood, 37°C, 60 min
OCT2 = OCT2 (Homo sapiens, UniProt O15244); assay: Transporter inhibition in HEK293 cells; type: in vitro ADME
SD rat hepatocytes = assay: Hepatocyte stability; type: in vitro ADME; settings: 1.00 μM
CYP2C19 = CYP2C19 (Homo sapiens, UniProt P33261); assay: CYP time-dependent inhibition assay; type: in vitro ADME
[4] = Bidirectional permeability and efflux in Caco-2 cells; type: in vitro ADME; settings: human
Caco-2 cell monolayers = assay: as above; type: in vitro ADME
[5] = Single-dose pharmacokinetics in beagle dogs; type: in vivo, beagle dog; settings: for AUC0-last: n=3, mean
[6] = Single rising dose pharmacokinetics in beagle dogs; type: in vivo, beagle dog; settings: for AUC(0-inf) / AUC(0-t) / Cmax / Tmax / half-life: male, beagle, dog, plasma, sc
[7] = male, SD, rat, plasma, iv, 2 mg/kg
[8] = male, SD, rat, plasma, sc, 10 mg/kg
[9] = cutoff IC50 shift >= 1.5-fold, 30 min pre-incubation ± NADPH
[10] = 2.00 μM, with 10.0 μM GF120918, Caco-2, 120 min
[11] = 10.0 μM, with 10.0 μM GF120918, Caco-2, 120 min
[12] = 10.0 μM, without GF120918, Caco-2, 120 min
[13] = 100 μM, with 10.0 μM GF120918, Caco-2, 120 min
[14] = 100 μM, without GF120918, Caco-2, 120 min
[15] = male, beagle, dog, plasma, iv, 1 mg/kg
[16] = male, beagle, dog, plasma, sc, 5 mg/kg

Chain of CYP2C19 (P33261 whole entry): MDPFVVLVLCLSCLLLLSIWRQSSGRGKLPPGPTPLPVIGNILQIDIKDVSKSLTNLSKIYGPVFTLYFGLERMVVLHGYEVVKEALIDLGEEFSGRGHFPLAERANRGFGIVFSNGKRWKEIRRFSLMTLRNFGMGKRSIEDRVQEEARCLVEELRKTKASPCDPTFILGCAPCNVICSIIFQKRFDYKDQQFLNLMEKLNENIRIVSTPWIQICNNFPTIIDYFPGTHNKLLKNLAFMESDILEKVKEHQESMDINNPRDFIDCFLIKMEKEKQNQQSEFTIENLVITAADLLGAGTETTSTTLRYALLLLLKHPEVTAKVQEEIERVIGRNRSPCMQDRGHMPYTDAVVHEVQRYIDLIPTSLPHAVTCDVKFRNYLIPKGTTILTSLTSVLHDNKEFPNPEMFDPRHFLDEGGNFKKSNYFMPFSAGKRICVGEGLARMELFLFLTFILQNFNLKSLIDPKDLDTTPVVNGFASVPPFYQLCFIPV
Chain of CYP2D6 (P10635 whole entry): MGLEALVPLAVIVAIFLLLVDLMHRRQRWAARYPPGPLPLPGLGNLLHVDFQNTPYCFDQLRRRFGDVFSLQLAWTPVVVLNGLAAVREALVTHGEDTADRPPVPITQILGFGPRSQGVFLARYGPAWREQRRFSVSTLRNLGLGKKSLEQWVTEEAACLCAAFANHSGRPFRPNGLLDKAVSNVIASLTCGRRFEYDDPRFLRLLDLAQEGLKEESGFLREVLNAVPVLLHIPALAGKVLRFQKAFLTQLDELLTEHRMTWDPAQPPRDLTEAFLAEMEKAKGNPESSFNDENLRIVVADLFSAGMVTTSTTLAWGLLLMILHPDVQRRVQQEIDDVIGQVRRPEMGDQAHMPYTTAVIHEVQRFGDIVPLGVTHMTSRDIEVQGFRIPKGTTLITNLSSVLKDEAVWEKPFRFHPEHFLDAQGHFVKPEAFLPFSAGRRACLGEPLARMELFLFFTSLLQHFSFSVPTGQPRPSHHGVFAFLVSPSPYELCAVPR
Chain of OCT2 (O15244 whole entry): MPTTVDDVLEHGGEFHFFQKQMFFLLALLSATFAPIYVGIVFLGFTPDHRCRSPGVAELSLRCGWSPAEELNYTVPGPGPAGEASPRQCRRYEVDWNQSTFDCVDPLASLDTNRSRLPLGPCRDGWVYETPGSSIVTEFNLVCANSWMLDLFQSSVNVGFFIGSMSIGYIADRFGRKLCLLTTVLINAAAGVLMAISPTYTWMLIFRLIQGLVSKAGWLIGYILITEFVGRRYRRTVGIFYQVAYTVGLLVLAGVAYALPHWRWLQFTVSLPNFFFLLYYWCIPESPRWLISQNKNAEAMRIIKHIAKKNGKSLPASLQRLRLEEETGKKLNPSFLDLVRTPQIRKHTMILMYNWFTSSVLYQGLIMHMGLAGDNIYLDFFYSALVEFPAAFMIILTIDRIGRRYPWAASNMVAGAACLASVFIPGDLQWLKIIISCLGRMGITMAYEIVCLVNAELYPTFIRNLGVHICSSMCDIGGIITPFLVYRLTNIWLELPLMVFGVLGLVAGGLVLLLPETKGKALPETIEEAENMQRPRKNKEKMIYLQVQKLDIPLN

## CC(C)[C@@H](NC(=O)[C@H](N)Cc1ccc(O)cc1)C(=O)N[C@H](CC(=O)O)C(=O)N[C@H](CCCCN)C(=O)N[C@H](CCCNC(=N)N)C(=O)O [FC-12738, (D-Tyr)-(D-Val)-(D-Asp)-(D-Lys)-(D-Arg)] (HELM PEPTIDE1{[dY].[dV].[dD].[dK].[dR]}$$$$V2.0)
[1]; male SD rats, IV 2 mg/kg or SC 10 mg/kg single
  Tolerability / adverse effects in-life: No adverse effect was observed
[1]; [7]
  AUC(0-inf): 2830 ng·h/mL
  AUC(0-t): 2800 ng·h/mL
  C0: 7830 ng/mL
  Vd: 0.309 L/kg
  clearance: 11.8 mL/min/kg
  half-life: 19.1 min
[1]; [8]
  AUC(0-inf): 13000 ng·h/mL
  AUC(0-t): 13000 ng·h/mL
  Cmax: 8430 ng/mL
  Tmax: 25 min
  bioavailability: 91.9%
  half-life: 40.8 min
CYP1A2
  Induction of CYP1A2 (enzyme activity and gene expression): not considered as an inducer
Beagle dog hepatocytes; cryopreserved beagle dog hepatocytes, 37.0°C, 120 min
  intrinsic clearance CLint(hep): < 1.9 μL/min/10^6 cells
Beagle dog hepatocytes; cryopreserved beagle dog hepatocytes, 37.0°C, 120 min, LC-MS/MS
  half-life: > 372.7 min
Beagle dog hepatocytes; scaled from beagle dog hepatocytes
  hepatic clearance CLint(liver): < 12.8 mL/min/kg
[2]; dog whole blood, 0.200 μM, 37°C, 60 min
  Mean erythrocyte to plasma ratio KE/P: < 0.18
[2]; dog whole blood, 2.00 μM, 37°C, 60 min
  Mean erythrocyte to plasma ratio KE/P: 0.07
[2]; dog whole blood, 10.0 μM, 37°C, 60 min
  Mean erythrocyte to plasma ratio KE/P: < 0.14
[2]; dog whole blood, 10.0 μM, 37°C, 60 min, LC-MS/MS
  Mean blood-to-plasma ratio KB/P: 0.58
[2]; dog, whole blood
  tissue to tissue ratio at 1 h, 0.2 µM: 0.57
  tissue to tissue ratio at 1 h, 2 µM: 0.55
Mouse hepatocytes
  Relative Abundance (UV%): 88.92%
CYP2D6
  IC50: > 100 µM
CYP2D6; [9]
  Time-dependent inhibition of CYP2D6: no time-dependent inhibition
[3]; 0.200 μM
  Mean erythrocyte to plasma ratio KE/P: < 0.21
[3]; 2.00 μM
  Mean erythrocyte to plasma ratio KE/P: < 0.11
[3]; 10.0 μM
  Mean erythrocyte to plasma ratio KE/P: < 0.03
[3]; rat, whole blood
  tissue to tissue ratio at 1 h, 0.2 µM: 0.48
  tissue to tissue ratio at 1 h, 2 µM: 0.5
  tissue to tissue ratio at 1 h, 10 µM: 0.47
OCT2
  IC50: > 100 µM
SD rat hepatocytes; cryopreserved SD rat hepatocytes, 37.0°C, 120 min
  intrinsic clearance CLint(hep): < 1.9 μL/min/10^6 cells
SD rat hepatocytes; cryopreserved SD rat hepatocytes, 37.0°C, 120 min, LC-MS/MS
  half-life: > 372.7 min
SD rat hepatocytes; scaled from SD rat hepatocytes
  hepatic clearance CLint(liver): < 8.7 mL/min/kg
CYP2C19
  IC50: > 100 µM
CYP2C19; [9]
  Time-dependent inhibition of CYP2C19: no time-dependent inhibition
[4]; Caco-2
  efflux ratio at 120 min, 10 μM: 0.88
  efflux ratio at 120 min, 100 μM: 1.24
[4]; Caco-2, with GF120918 10.0 μM
  efflux ratio at 120 min, 10 μM: 1.13
Caco-2 cell monolayers; [10]
  Mean %Solution Recovery A to B: <92.9%
  Mean %Solution Recovery B to A: <96.5%
Caco-2 cell monolayers; [11]
  Mean %Solution Recovery A to B: 89.9%
  Mean %Solution Recovery B to A: 96.5%
Caco-2 cell monolayers; [12]
  Mean %Solution Recovery A to B: 90.2%
  Mean %Solution Recovery B to A: 100.5%
Caco-2 cell monolayers; [13]
  Efflux Ratio (ERi): 1.23
  Mean %Solution Recovery A to B: 86.9%
  Mean %Solution Recovery B to A: 97.0%
Caco-2 cell monolayers; [14]
  Mean %Solution Recovery A to B: 89.1%
  Mean %Solution Recovery B to A: 95.3%
Caco-2 cell monolayers; 2.00, 10.0 and 100 μM
  Permeability across the Caco-2 cell monolayer (conclusion): low permeable
[5]; male beagle dogs, IV 1 mg/kg or SC 5 mg/kg single
  Tolerability / adverse effects in-life: No adverse effect was observed
[5]; male beagle dogs, IV 1 mg/kg single
  AUC0-last: 2850 ± 439 ng·h/mL
[5]; male beagle dogs, SC 5 mg/kg single
  AUC0-last: 16100 ± 2510 ng·h/mL
[5]; male beagle dogs, SC 5 mg/kg, calculated with mean AUC0-last and nominal dose
  bioavailability: 112%
[5]; [15]
  AUC(0-inf): 2900 ng·h/mL
  C0: 4820 ng/mL
  Vd: 0.302 L/kg
  clearance: 5.85 mL/min/kg
[5]; [16]
  AUC(0-inf): 16200 ng·h/mL
  Cmax: 7300 ng/mL
  Tmax: 50 min
  half-life: 53 min
[6]; male beagle dogs, SC 1 to 25 mg/kg
  Dose dependence of systemic exposure (AUC0-last and Cmax): increased with dose proportionally
[6]; 1 mg/kg
  AUC(0-inf): 2770 ng·h/mL
  AUC(0-t): 2760 ng·h/mL
  Cmax: 925 ng/mL
  Tmax: 60 min
  half-life: 57.4 min
[6]; 5 mg/kg
  AUC(0-inf): 16800 ng·h/mL
  AUC(0-t): 16700 ng·h/mL
  Cmax: 7090 ng/mL
  Tmax: 60 min
  half-life: 54.4 min
[6]; 25 mg/kg
  AUC(0-inf): 72800 ng·h/mL
  AUC(0-t): 72800 ng·h/mL
  Cmax: 33300 ng/mL
  Tmax: 40 min
  half-life: 121 min
